Results on 25 compounds are retold here after US20240228535A1 (priority 2022, published 2024).

Structures are written as SMILES.

The assay concerns the target SARS2 coronavirus 3CL protease (Severe acute respiratory syndrome coronavirus 2, UniProt P0DTD1). Put plainly: biochemical. The note with it: 5 nM enzyme, 30 min pre-incubation with compound, 15 μM peptide substrate, 4 h at room temperature; read-out: FRET Potency (nM); IC50 values in the SARS2 3CLPro FRET assay.
On to `CNC(=O)C(=O)[C@H](C[C@@H]1C[C@@H](C)NC1=O)NC(=O)c1cc(Cl)ccc1NC(=O)C1CCC(F)(F)CC1` [Example 197], for which the IC50 was determined as 9.4 nM.
For the compound `CNC(=O)C(=O)[C@H](C[C@@H]1C[C@@H](C)NC1=O)NC(=O)c1cc(Cl)ccc1NC(=O)OC1CCC(F)(F)C1` (stereo partly drawn) [Example 200, (3,3-difluorocyclopentyl) N-[4-chloro-2-[[(1S)-3-(methylamino)-1-[[(3S,5R)-5-methyl-2-oxo-pyrrolidin-3-yl]methyl]-2,3-dioxo-propyl]carbamoyl]phenyl] carbamate], the IC50 was 4.6 nM.
Consider `CNC(=O)C(=O)[C@H](C[C@@H]1C[C@@H](C)NC1=O)NC(=O)c1cc(Cl)ccc1NC(=O)OC1CCC(F)(F)C1` (stereo partly drawn) [Example 201, (3,3-difluorocyclopentyl) N-[4-chloro-2-[(1S)-3-(methylamino)-1-[[(3S,5R)-5-methyl-2-oxo-pyrrolidin-3-yl]methyl]-2,3-dioxo-propyl]carbamoyl]phenyl] carbamate], for which the IC50 was found to be 7 nM.
As to `CNC(=O)C(=O)[C@H](C[C@@H]1C[C@@H](C)NC1=O)NC(=O)c1cc(Cl)ccc1NC(=O)C1(CC(F)(F)F)CC1` [Example 202, 5-chloro-N-[(1S)-3-(methylamino)-1-[[(3S,5R)-5-methyl-2-oxo-pyrrolidin-3-yl]methyl]-2,3-dioxo-propyl]-2-[[1-(2,2,2-trifluoroethyl)cyclopropane-carbonyl]amino]benzamide], the IC50 turned out to be 11.9 nM.
Take `CNC(=O)C(=O)[C@H](C[C@@H]1C[C@@H](C)NC1=O)NC(=O)c1cc(C(F)F)ccc1NC(=O)C1(C(F)(F)F)CC1` [Example 203, 5-(difluoromethyl)-N-[(1S)-3-(methylamino)-1-[[(3S,5R)-5-methyl-2-oxo-pyrrolidin-3-yl]methyl]-2,3-dioxo-propyl]-2-[[1-(trifluoromethyl)cyclopropane-carbonyl]amino]benzamide]: the IC50 is 36.6 nM.
As to `C[C@@H]1C[C@@H](C[C@H](NC(=O)c2cc(Cl)ccc2NC(=O)[C@@H]2CN(C)C(=O)O2)C(=O)C(=O)NC2CC2)C(=O)N1` [Example 204, (5S)-N-[4-chloro-2-[[(1S)-3-(cyclopropylamino)-1-[[(3S,5R)-5-methyl-2-oxo-pyrrolidin-3-yl]methyl]-2,3-dioxo-propyl]carbamoyl]phenyl]-3-methyl-2-oxo-oxazolidine-5-carboxamide], the IC50 was found to be 4.7 nM.
Turning to `C[C@@H]1C[C@@H](C[C@H](NC(=O)c2cc(Cl)ccc2NC(=O)[C@H]2CN(C)C(=O)O2)C(=O)C(=O)NC2CC2)C(=O)N1` [Example 205], the IC50 stood at 6.6 nM.
In the case of `C[C@@H]1C[C@@H](C[C@H](NC(=O)c2cc(Cl)cc(F)c2NC(=O)C23CC(F)(C2)C3)C(=O)C(=O)NC2CC2)C(=O)N1` [Example 206], the IC50 was found to be 12.8 nM.
Regarding `CNC(=O)C(=O)[C@H](C[C@@H]1C[C@@H](C)NC1=O)NC(=O)c1cc(F)ccc1NC(=O)c1ccnc(C(F)(F)F)c1` [Example 207, N-[4-fluoro-2-[[(1S)-3-(methylamino)-1-[[(3S,5R)-5-methyl-2-oxo-pyrrolidin-3-yl]methyl]-2,3-dioxo-propyl]carbamoyl]phenyl]-2-(trifluoromethyl)pyridine-4-carboxamide], the IC50 stood at 11.4 nM.
For `C[C@@H]1C[C@@H](C[C@H](NC(=O)c2cc(Cl)ccc2NC(=O)c2ccnc(C(F)(F)F)c2)C(=O)C(N)=O)C(=O)N1` [Example 208, N-[2-[[(1S)-3-amino-1-[[(3S,5R)-5-methyl-2-oxo-pyrrolidin-3-yl]methyl]-2,3-dioxo-propyl]carbamoyl]-4-chloro-phenyl]-2-(trifluoromethyl)pyridine-4-carboxamide], the IC50 came out at 6.9 nM.
Regarding `C[C@@H]1C[C@@H](C[C@H](NC(=O)c2cc(Cl)ccc2NC(=O)[C@H](C)CC(F)(F)F)C(=O)C(=O)NC2CC2)C(=O)N1` [Example 209, 5-chloro-N-[(1S)-3-(cyclopropylamino)-1-[[(3S,5R)-5-methyl-2-oxo-pyrrolidin-3-yl]methyl]-2,3-dioxo-propyl]-2-[[(2R)-4,4,4-trifluoro-2-methyl-butanoyl]amino]benzamide], the IC50 stood at 9.8 nM.
Consider `CC(OC(=O)Nc1ccc(Cl)cc1C(=O)N[C@@H](C[C@@H]1C[C@@H](C)NC1=O)C(=O)C(=O)NC1CC1)C(F)(F)F` (stereo partly drawn) [Example 210, (2,2,2-trifluoro-1-methyl-ethyl) N-[4-chloro-2-[[(1S)-3-(cyclopropylamino)-1-[[(3S,5R)-5-methyl-2-oxo-pyrrolidin-3-yl]methyl]-2,3-dioxo-propyl]carbamoyl]phenyl] carbamate], for which the IC50 amounted to 7.8 nM.
To `CC(OC(=O)Nc1ccc(Cl)cc1C(=O)N[C@@H](C[C@@H]1C[C@@H](C)NC1=O)C(=O)C(=O)NC1CC1)C(F)(F)F` (stereo partly drawn) [Example 211, (2,2,2-trifluoro-1-methyl-ethyl) N-[4-chloro-2-[[(1S)-3-(cyclopropylamino)-1-[[(3S,5R)-5-methyl-2-oxo-pyrrolidin-3-yl]methyl]-2,3-dioxo-propyl]carbamoyl]phenyl] carbamate] belongs 7.3 nM.
Regarding `C[C@@H]1C[C@@H](C[C@H](NC(=O)c2cc(Cl)ccc2NC(=O)[C@@H]2CN(C)C(=O)N2C)C(=O)C(=O)NC2CC2)C(=O)N1` [Example 212, (4S)-N-[4-chloro-2-[[(1S)-3-(cyclopropylamino)-1-[[(3S,5R)-5-methyl-2-oxo-pyrrolidin-3-yl]methyl]-2,3-dioxo-propyl]carbamoyl]phenyl]-1,3-dimethyl-2-oxo-imidazolidine-4-carboxamide], the IC50 was found to be 5.6 nM.
To `C[C@@H]1C[C@@H](C[C@H](NC(=O)c2cc(Cl)cc(F)c2NC(=O)CCC(F)(F)F)C(=O)C(=O)NC2CC2)C(=O)N1` [Example 213, 5-chloro-N-[(1S)-3-(cyclopropylamino)-1-[[(3S,5R)-5-methyl-2-oxo-pyrrolidin-3-yl]methyl]-2,3-dioxo-propyl]-3-fluoro-2-(4,4,4-trifluorobutanoylamino) benzamide] belongs 15.4 nM; to `CNC(=O)C(=O)[C@H](C[C@@H]1C[C@@H](C)NC1=O)NC(=O)c1cc(Cl)c(F)cc1NC(=O)C1(CC(F)(F)F)CC1` [Example 214, 5-chloro-4-fluoro-N-[(1S)-3-(methylamino)-1-[[(3S,5R)-5-methyl-2-oxo-pyrrolidin-3-yl]methyl]-2,3-dioxo-propyl]-2-[[1-(2,2,2-trifluoroethyl)cyclopropane-carbonyl]amino]benzamide], 6.8 nM; to `CNC(=O)C(=O)[C@H](C[C@@H]1C[C@@H](C)NC1=O)NC(=O)c1cc(Cl)ccc1NC(=O)c1cnc(C(F)(F)F)nc1` [Example 215, N-[4-chloro-2-[[(1S)-3-(methylamino)-1-[[(3S,5R)-5-methyl-2-oxo-pyrrolidin-3-yl]methyl]-2,3-dioxo-propyl]carbamoyl]phenyl]-2-(trifluoromethyl)pyrimidine-5-carboxamide], 10.1 nM.
Turning to `CNC(=O)C(=O)[C@H](C[C@@H]1C[C@@H](C)NC1=O)NC(=O)c1cc(Cl)ccc1NC(=O)c1nccc(C(F)(F)F)n1` [Example 216], the IC50 came to 9.6 nM.
As to `CNC(=O)C(=O)[C@H](C[C@@H]1C[C@@H](C)NC1=O)NC(=O)c1cc(Cl)ccc1NC(=O)c1ncc(C(F)(F)F)cn1` [Example 217, N-[4-chloro-2-[[(1S)-3-(methylamino)-1-[[(3S,5R)-5-methyl-2-oxo-pyrrolidin-3-yl]methyl]-2,3-dioxo-propyl]carbamoyl]phenyl]-5-(trifluoromethyl)pyrimidine-2-carboxamide], the IC50 is 6.7 nM.
As to `CNC(=O)C(=O)[C@H](C[C@@H]1C[C@@H](C)NC1=O)NC(=O)c1cc(Cl)ccc1NC(=O)OCC1CCCC(F)(F)C1` (stereo partly drawn) [Example 218, (3,3-difluorocyclohexyl)methyl N-[4-chloro-2-[[(1S)-3-(methylamino)-1-[[(3S,5R)-5-methyl-2-oxo-pyrrolidin-3-yl]methyl]-2,3-dioxo-propyl]carbamoyl]phenyl] carbamate], the IC50 came to 6.8 nM.
Turning to `CNC(=O)C(=O)[C@H](C[C@@H]1C[C@@H](C)NC1=O)NC(=O)c1cc(Cl)ccc1NC(=O)OCC1CCCC(F)(F)C1` (stereo partly drawn) [Example 219, (3,3-difluorocyclohexyl)methyl N-[4-chloro-2-[[(1S)-3-(methylamino)-1-[(3S,5R)-5-methyl-2-oxo-pyrrolidin-3-yl]methyl]-2,3-dioxo-propyl]carbamoyl]phenyl] carbamate], the IC50 came to 7.1 nM.
With `C[C@@H]1C[C@@H](C[C@H](NC(=O)c2cc(C(F)F)ccc2NC(=O)C2(C(F)(F)F)CC2)C(=O)C(=O)NC2CC2)C(=O)N1` [Example 220, N-[(1S)-3-(cyclopropylamino)-1-[[(3S,5R)-5-methyl-2-oxo-pyrrolidin-3-yl]methyl]-2,3-dioxo-propyl]-5-(difluoromethyl)-2-[[1-(trifluoromethyl)cyclopropane-carbonyl]amino]benzamide], the IC50 worked out at 60.3 nM.
For `CNC(=O)C(=O)[C@H](C[C@@H]1C[C@@H](C)NC1=O)NC(=O)c1cc(Cl)ccc1NC(=O)[C@@H](N(C)C(=O)OC)C(C)(C)C` [Example 221], the IC50 was 41.9 nM.
Regarding `CNC(=O)C(=O)[C@H](C[C@@H]1C[C@@H](C)NC1=O)NC(=O)c1cc(C(F)F)ccc1NC(=O)c1ccnc(C(F)(F)F)c1` [Example 222, N-[4-(difluoromethyl)-2-[[(1S)-3-(methylamino)-1-[[(3S,5R)-5-methyl-2-oxo-pyrrolidin-3-yl]methyl]-2,3-dioxo-propyl]carbamoyl]phenyl]-2-(trifluoromethyl)pyridine-4-carboxamide], the IC50 is 5.2 nM.
As to `CNC(=O)C(=O)[C@H](C[C@@H]1C[C@@H](C)NC1=O)NC(=O)c1cc(Cl)c(F)cc1NC(=O)c1ccc(C(F)(F)F)nc1` [Example 223, N-[4-chloro-5-fluoro-2-[[(1S)-3-(methylamino)-1-[[(3S,5R)-5-methyl-2-oxo-pyrrolidin-3-yl]methyl]-2,3-dioxo-propyl]carbamoyl]phenyl]-6-(trifluoromethyl)pyridine-3-carboxamide], the IC50 came out at 9 nM.
